The values below come from patent US6162823A, “LTA4 hydrolase inhibitors” (G.D. Searle & Co., priority 1997, dated 2000).

Assay [1] deals with LTB4 production by calcium ionophore stimulated mouse blood. The assay can be described thus: Murine ex vivo LTB4 inhibition (calcium ionophore stimulated mouse blood after oral dosing). Particulars: for inhibition at 10 mg/kg: read-out: Murine Ex Vivo LTB4 Inhibition, % I LTB4 at 1 hour after administration. It is filed as in vivo. How it is done: The compounds were administered by oral garage to adult male outbred mice weighing approximately 20-30 gm at a dose of 10 mg/kg body weight. […] The mixture was incubated for 10 minutes at 37° C. in a humidified incubator. The reaction was terminated by centrifugation (833 g. 10 minutes at 4° C.). Supernatant were analyzed for LTB4 and thromboxane by commercially available enzyme-linked immunoassays [Caymen Chemical Co., Ann Arbor, Mich.] in accordance with the manufacturer's instructions. The percent inhibition was determined by comparison to animals treated identically except that the solution administered by oral gavage was devoid of inhibitor compound.

For assay [2], the system named is calcium ionophore-induced LTB4 production in human blood. Kind of assay: Inhibition of calcium ionophore-induced LTB4 production in human blood (HWB). Format: cell-based. Particulars: read-out: Inhibition of Calcium Ionophore-induced LTB4 Production in Human Blood (HWB) IC50.
Experimental: LTB4 and Thromboxane Production by Calcium Ionophore Stimulated Human Blood for LTB4 Hydrolase Inhibitor Activity
Human blood, collected in heparin-containing Vacutainer tubes, was diluted 1:4 with RPMI-1640 media and 200 μl of the diluted blood was added into each of a 96-well microtiter plate. […] After incubating for 15 minutes at 37° C. in a humidified incubator, calcium ionophore A13187 (Sigma Chemical Co., St. Louis, Mo.) was added to a final concentration of 20 mcg/ml and the incubation continued under the same conditions for an additional 10 minutes to allow LTB4 formation. The reaction was terminated by centrifugation (833 g, 10 minutes at 4° C.) and supernatant were analyzed for LTB4 and thromboxane by commercially available enzyme-linked immunoassays (Caymen Chemical Co., Ann Arbor, Mich.) according to the manufacturer's instructions. The IC50 of each test compound was determined from the amount of inhibition of LTB4 production as compared to an essentially identical assay in which no inhibitor compound was present.
Assay [3] addresses T1, recombinant human LTA4 hydrolase (rhLTAH) (Homo sapiens, UniProt P09960).
T1 construct: made in house; host or cells: Spodoptera frugiperda Sf-9 cells (baculovirus)
T1 sequence (P09960 1-611): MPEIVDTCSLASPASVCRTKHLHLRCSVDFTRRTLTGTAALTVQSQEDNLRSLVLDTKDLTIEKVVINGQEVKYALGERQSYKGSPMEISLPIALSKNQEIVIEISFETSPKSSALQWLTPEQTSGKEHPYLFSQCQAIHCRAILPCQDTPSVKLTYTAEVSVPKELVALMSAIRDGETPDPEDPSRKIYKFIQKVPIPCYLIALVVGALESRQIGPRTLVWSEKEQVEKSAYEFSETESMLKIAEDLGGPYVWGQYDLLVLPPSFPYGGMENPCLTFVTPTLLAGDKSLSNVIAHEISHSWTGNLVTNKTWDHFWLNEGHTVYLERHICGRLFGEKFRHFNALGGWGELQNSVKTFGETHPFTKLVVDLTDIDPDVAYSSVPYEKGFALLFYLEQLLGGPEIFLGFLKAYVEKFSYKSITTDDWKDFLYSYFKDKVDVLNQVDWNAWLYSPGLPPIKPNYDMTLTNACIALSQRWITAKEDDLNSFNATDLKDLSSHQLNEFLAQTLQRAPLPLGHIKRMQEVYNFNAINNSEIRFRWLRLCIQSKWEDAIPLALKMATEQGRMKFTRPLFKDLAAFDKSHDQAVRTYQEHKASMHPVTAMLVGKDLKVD
Kind of assay: Recombinant Human LTA Hydrolase Assay for LTA Hydrolase Inhibitor Activity. Format: biochemical. Particulars: 10 min preincubation with 250 ng enzyme, LTA4 substrate, room temperature, pH 7.4.
Experimental: Compounds of the present invention were tested for LTA hydrolase inhibitor activity against recombinant human LTA hydrolase (rhLTAH).
One or more predetermined amounts of a compound of the invention were incubated in assay buffer (0.1 M potassium phosphate, 5 mg/ml fatty acid free BSA, 10% DMSO, pH 7.4) for 10 minutes at room temperature with 250 ng of recombinant hLTA4 H to allow binding, if any, between the enzyme and inhibitor. […] LTA4 (free acid) was thawed and diluted in assay buffer (minus DMSO) to a concentration of 350 ng/ml and 25 μl (8ng) of LTA4 substrate was added to the reaction mixture (total volume of reaction mixture=200 μl at time zero. Each reaction was carried out at room temperature for 10 minutes. The reaction was stopped by diluting 25 μl of the reaction mixture with 500 μl of the assay buffer without DMSO. LTA4 was quantified in the diluted sample by a commercially available enzyme-linked immunoassay [Caymen Chemical Col. Ann Arbor, Mich.] using the method recommended in the manufacturer's instructions and compared to the amount of LTA4 produced in a negative control (i.e., essentially identical conditions except without addition of an inhibitor compound). The IC50 was routinely calculated from the data produced.

Assay [4] concerns LTA4 hydrolase. Particulars: cited from earlier work.
The mark [5] stands for this setting: mouse, oral gavage, 10 mg/kg (* indicates 50 mg/kg), 1 hour after administration, ionophore A23187 20 mcg/ml.
Setting [6] is: human whole blood diluted 1:4, 15 min preincubation at 37° C., ionophore 20 mcg/ml, 10 min.

pIC50: −log10 of the molar value. Structures can show the parent of a compound that is named as a salt. Where two headings read alike, the source gives them in different places.

Take `CN(CCCOc1ccc(Cc2ccsc2)cc1)CCC(=O)NS(C)(=O)=O` [Example 18, N-(methylsulfonyl)-3-[methyl[3-[4-[(3-thienyl)methyl]phenoxy]propyl]-amino]propanamide]: the inhibition at 10 mg/kg in assay [1] (setting [5]) worked out at 94%. The negative-log IC50 (pIC50) was 6.72 in assay [2] (setting [6]) and 7.70 in assay [3].

For the molecule `CCN(CCCOc1ccc(Cc2ccsc2)cc1)CCC(=O)NS(C)(=O)=O` [Example 15, 3-[Ethyl[3-[4-[(3-thienyl)methyl]phenoxy]propyl]-amino]-N-(methylsulfonyl)propanamide monohydrochloride], in assay [1] (setting [5]), the inhibition at 10 mg/kg was found to be 79%. In assay [2] (setting [6]), the pIC50 was 6.64.

On to `CN(CCCOc1ccc(Cc2cccs2)cc1)CCC(=O)NS(=O)(=O)c1ccccc1` [Example 9], for which the inhibition at 10 mg/kg in assay [1] (setting [5]) amounted to 87%. In addition, the negative logarithm of the IC50 (pIC50) in assay [2] (setting [6]) is 7.10; in assay [3], greater than 9.30.

For the molecule `CC(C)N(CCCOc1ccc(Cc2ccsc2)cc1)CCC(=O)NS(=O)(=O)c1ccccc1` [Example 21], the inhibition at 10 mg/kg in assay [1] (setting [5]) is 60%. Further, the negative-log IC50 (pIC50) is 6.82 in assay [2] (setting [6]) and 7.05 in assay [3].

For the molecule `CCN(CCCOc1ccc(Cc2ccsc2)cc1)CCC(=O)NS(=O)(=O)c1ccccc1` [Example 14, monohydrate], in assay [1] (setting [5]), the inhibition at 10 mg/kg came out at 87%. The figures for the pIC50 in assay [2] (setting [6]) and in assay [3] were 7.09 and 7.96, respectively.

With `CC(C)(C)N(CCCOc1ccc(Cc2ccccc2)cc1)CCC(=O)NS(C)(=O)=O` [Example 25], the inhibition at 10 mg/kg in assay [1] (setting [5]) was 45%. In addition, the results for the pIC50 in assay [2] (setting [6]) and in assay [3] were 6.96 and 7.00, respectively.

Take `CC(C)C[C@H](NC(=O)[C@@H](O)[C@H](N)Cc1ccccc1)C(=O)O` [bestatin]: the “LTA4 hydrolase inhibitory activity” value in assay [4] was “exhibit LTA4 hydrolase inhibitory activity”.

For `CC(C)N(CCCOc1ccc(Cc2ccsc2)cc1)CCC(=O)NS(C)(=O)=O` [Example 16], the inhibition at 10 mg/kg in assay [1] (setting [5]) amounted to 85%. The pIC50 in assay [2] (setting [6]) is 6.70; in assay [3] it was 6.35.

Turning to “N-(phenylsulfonyl)-3-[propyl[3-[4-[(3-thienyl)methyl]phenoxy]propyl]-amino]propanamide monohydrochloride [Example 19]”, the “Murine Ex Vivo LTB4 Inhibition, % I LTB4 at 1 hour after administration” value (“Murine Ex Vivo LTB4 Inhibition, % I LTB4” for short) in assay [1] (setting [5]) was 45%. For the same molecule, the results for the pIC50 in assay [2] (setting [6]) and in assay [3] were 7.12 and 7.05, respectively.

Regarding `CCN(CCCOc1ccc(Cc2ccccc2)cc1)CCC(=O)NS(C)(=O)=O` [Example 28], the inhibition at 10 mg/kg in assay [1] (setting [5]) is 89%. Also, the pIC50 was 6.74 in assay [2] (setting [6]) and 6.27 in assay [3].

In the case of `CN(CCCOc1ccc(Cc2ccccc2)cc1)CCC(=O)NS(C)(=O)=O` [Example 23], the inhibition at 10 mg/kg in assay [1] (setting [5]) turned out to be 100%. Further, the negative-log IC50 (pIC50) in assay [2] (setting [6]) is 7.15; in assay [3], 8.89.

Regarding `CCN(CCCOc1ccc(Cc2cccs2)cc1)CCC(=O)NS(C)(=O)=O` [Example 11, 3-[Ethyl[3-[4-[(2-thienyl)methyl]phenoxy]propyl]-amino]-N-(methylsulfonyl)propanamide monohydrochloride], in assay [1] (setting [5]), the inhibition at 10 mg/kg came to 86%. Also, the negative logarithm of the IC50 (pIC50) in assay [2] (setting [6]) was 7.18; in assay [3], 7.48.

As to `CN(CCCOc1ccc(Cc2ccsc2)cc1)CCC(=O)NS(=O)(=O)c1ccccc1` [Example 17, monohydrochloride], the inhibition at 10 mg/kg in assay [1] (setting [5]) came to 93%. Besides, the pIC50 in assay [2] (setting [6]) is 6.89; in assay [3], 9.30.

For the molecule `CC(C)N(CCCOc1ccc(Cc2cccs2)cc1)CCC(=O)NS(C)(=O)=O` [Example 12, 3-[(1-methylethyl)[3-[4-[(2-thienyl)methyl-]phenoxy]propyl]-amino]-N-(methylsulfonyl)-propanamide monohydrochloride], the inhibition at 10 mg/kg in assay [1] (setting [5]) came out at 68%. Moreover, the negative-log IC50 (pIC50) was 7.10 in assay [2] (setting [6]) and 7.92 in assay [3].

For the molecule `CC(C)N(CCCOc1ccc(Cc2ccccc2)cc1)CCC(=O)NS(C)(=O)=O` [Example 26], the inhibition at 10 mg/kg in assay [1] (setting [5]) amounted to 81%. The negative-log IC50 (pIC50) in assay [2] (setting [6]) was 6.66; in assay [3] it was 6.80.

In the case of `C[C@H](CS)C(=O)N1CCC[C@H]1C(=O)O` [captopril], the “LTA4 hydrolase inhibitory activity” value in assay [4] is given as “exhibit LTA4 hydrolase inhibitory activity”.

Turning to “N-(methylsulfonyl)-3-[propyl[3-[4-[(3-thienyl)methyl]phenoxy]propyl]-amino]propanamide [Example 20]”, in assay [1] (setting [5]), the “Murine Ex Vivo LTB4 Inhibition, % I LTB4” value was 56%. In addition, the pIC50 in assay [2] (setting [6]) and in assay [3] was 6.82 in each case.

As for `CC(C)N(CCCOc1ccc(Cc2ccccc2)cc1)CCC(=O)NS(C)(=O)=O` [Example 27], the “Murine Ex Vivo LTB4 Inhibition, % I LTB4” value in assay [1] (setting [5]) amounted to 44%. Further, the values for the pIC50 in assay [2] (setting [6]) and in assay [3] were 7.00 and 7.33, respectively.

With `CS(=O)(=O)NC(=O)CCN(CCCOc1ccc(Cc2ccccc2)cc1)C1CC1` [Example 24], the negative-log IC50 (pIC50) in assay [2] (setting [6]) was 5.57; in assay [3], 5.67.

Take `CCN(CCCOc1ccc(Cc2ccccc2)cc1)CCC(=O)NS(=O)(=O)c1ccccc1` [Example 29]: the inhibition at 10 mg/kg in assay [1] (setting [5]) is 65%. The results for the pIC50 in assay [2] (setting [6]) and in assay [3] were 6.89 and 7.10, respectively.

For `CN(CCCOc1ccc(Cc2ccccc2)cc1)CCC(=O)NS(=O)(=O)c1ccccc1` [Example 22], the inhibition at 10 mg/kg in assay [1] (Mus musculus, po, 1 h) was 94%. For the same molecule, the negative-log IC50 (pIC50) is 7.12 in assay [2] (Homo sapiens) and 9.00 in assay [3].

With `CN(CCCOc1ccc(Cc2cccs2)cc1)CCC(=O)NS(C)(=O)=O` [Example 10, N-(Methylsulfonyl)-3-[methyl[3-[4-[(2-thienyl)-methyl]phenoxy]propyl]amino]propanamide], the inhibition at 10 mg/kg in assay [1] (setting [5]) amounted to 93%. Also, the negative logarithm of the IC50 (pIC50) was 7.21 in assay [2] (setting [6]) and 9.30 in assay [3].

For `CC(C)N(CCCOc1ccc(Cc2cccs2)cc1)CCC(=O)NS(=O)(=O)c1ccccc1` [Example 13, 3-[(1-methylethyl)[3-[4-[(2-thienyl)methyl-]phenoxy]propyl]amino]-N-(phenylsulfonyl)-propanamide, monohydrochloride], the results for the pIC50 in assay [2] (setting [6]) and in assay [3] were 7.40 and 8.64, respectively.

What is called pIC50 is the IC50 on a negative log10 scale, so that one unit is a factor of ten.
